Target: ULK1 (Homo sapiens, UniProt O75385)
Test: ULK1 inhibition assay (Table 1)
Format: biochemical
Details: * = tested as a mixture of regioisomers

Chain of ULK1 (O75385 whole entry, looked up): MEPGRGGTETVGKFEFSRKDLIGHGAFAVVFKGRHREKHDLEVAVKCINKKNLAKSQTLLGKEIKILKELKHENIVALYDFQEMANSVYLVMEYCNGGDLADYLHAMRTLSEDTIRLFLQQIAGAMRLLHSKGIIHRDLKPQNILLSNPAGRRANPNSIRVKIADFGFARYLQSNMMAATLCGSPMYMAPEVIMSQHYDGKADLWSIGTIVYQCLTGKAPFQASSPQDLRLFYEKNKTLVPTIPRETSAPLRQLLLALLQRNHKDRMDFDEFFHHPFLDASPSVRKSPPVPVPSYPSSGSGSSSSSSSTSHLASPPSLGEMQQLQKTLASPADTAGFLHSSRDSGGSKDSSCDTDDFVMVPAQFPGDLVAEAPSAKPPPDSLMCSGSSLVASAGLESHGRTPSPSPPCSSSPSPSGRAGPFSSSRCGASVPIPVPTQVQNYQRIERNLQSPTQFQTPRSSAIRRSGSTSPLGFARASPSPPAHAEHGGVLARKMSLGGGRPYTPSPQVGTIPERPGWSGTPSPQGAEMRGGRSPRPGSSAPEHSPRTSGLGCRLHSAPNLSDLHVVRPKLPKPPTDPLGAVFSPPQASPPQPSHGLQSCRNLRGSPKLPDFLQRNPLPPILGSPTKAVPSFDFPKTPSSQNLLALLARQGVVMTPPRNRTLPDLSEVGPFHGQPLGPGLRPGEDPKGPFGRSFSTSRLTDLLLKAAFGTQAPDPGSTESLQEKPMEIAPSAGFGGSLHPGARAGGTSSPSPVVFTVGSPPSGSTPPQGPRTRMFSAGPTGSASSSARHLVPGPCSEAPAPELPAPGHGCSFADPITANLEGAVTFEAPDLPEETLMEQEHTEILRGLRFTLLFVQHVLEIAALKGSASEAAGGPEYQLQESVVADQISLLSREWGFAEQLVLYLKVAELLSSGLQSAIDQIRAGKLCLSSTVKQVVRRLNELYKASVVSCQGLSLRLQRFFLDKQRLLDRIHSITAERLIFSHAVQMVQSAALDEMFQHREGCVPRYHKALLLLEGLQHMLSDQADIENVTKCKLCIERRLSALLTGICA

O=C1CCc2cc(Nc3ncc(C(F)(F)F)c(Nc4ccc5[nH]ncc5c4)n3)ccc2N1 [Example 185, 6-((4-((1H-indazol-5-yl)amino)-5-(trifluoromethyl)pyrimidin-2-yl)amino)-3,4-dihydroquinolin-2(1H)-one] and O=C1CCc2cc(Nc3ncc(C(F)(F)F)c(Nc4cc(C5CCC5)[nH]n4)n3)ccc2N1 [Example 271, 6-((4-((5-cyclobutyl-1H-pyrazol-3-yl)amino)-5-(trifluoromethyl)pyrimidin-2-yl)amino)-3,4-dihydroquinolin-2(1H)-one] cannot be ordered by IC50: under 200 nM for the first, under 200 nM for the second.

O=C1CCc2cc(Nc3ncc(C(F)(F)F)c(NCC4CC4)n3)ccc2N1 [Example 216, 6-((4-((cyclopropylmethyl)amino)-5-(trifluoromethyl)pyrimidin-2-yl)amino)-3,4-dihydroquinolin-2(1H)-one] and O=C1CCc2cc(Nc3ncc(C(F)(F)F)c(NCCO)n3)ccc2N1 [Example 197, 6-((4-((2-hydroxyethyl)amino)-5-(trifluoromethyl)pyrimidin-2-yl)amino)-3,4-dihydroquinolin-2(1H)-one] cannot be ordered by IC50: under 200 nM for the first, under 200 nM for the second.

FC(F)(F)c1cnc(Nc2ccc3ncoc3c2)nc1NC1CC1 [Example 208a, N2-(benzo[d]oxazol-6-yl)-N4-cyclopropyl-5-(trifluoromethyl)pyrimidine-2,4-diamine] and FC(F)(F)c1cnc(Nc2ccc3ncccc3c2)nc1NC1CC1 [Example 264, N4-cyclopropyl-N2-(quinolin-6-yl)-5-(trifluoromethyl) pyrimidine-2,4-diamine] cannot be ordered by IC50: under 200 nM for the first, under 200 nM for the second.

O=C1CCc2cc(Nc3ncc(C(=O)O)c(NC4CC4)n3)ccc2N1 [Example 286, 4-(cyclopropylamino)-2-((2-oxo-1,2,3,4-tetrahydroquinolin-6-yl)amino)pyrimidine-5-carboxylic Acid] and O=C1CCc2cc(Nc3ncnc(NC4CC4)n3)ccc2N1 [Example 225, 6-((4-(cyclopropylamino)-1,3,5-triazin-2-yl)amino)-3,4-dihydroquinolin-2(1H)-one] cannot be ordered by IC50: over 2000 nM for the first, over 2000 nM for the second.

First: Nc1nc(Nc2ccc3c(c2)CCC(=O)N3)ncc1C(F)(F)F [Example 209, 6-((4-amino-5-(trifluoromethyl)pyrimidin-2-yl)amino)-3,4-dihydroquinolin-2(1H)-one]
Second: CC1CN1c1nc(Nc2ccc3c(c2)CCC(=O)N3)ncc1C(F)(F)F (stereo not drawn) [Example 183a, 6-((4-(2-methylaziridin-1-yl)-5-(trifluoromethyl)pyrimidin-2-yl)amino)-3,4-dihydroquinolin-2(1H)-one]
The IC50 of the first is lower: 200 to 2000 nM for the first, over 2000 nM for the second.

FC(F)(F)c1cnc(Nc2ccc3[nH]ccc3c2)nc1NC1CC1 [Example 206, N4-cyclopropyl-N2-(1H-indol-5-yl)-5-(trifluoromethyl) pyrimidine-2,4-diamine] and FC(F)(F)c1cnc(Nc2ccc3nn[nH]c3c2)nc1NC1CC1 [Example 188, N2-(1H-benzo[d][1,2,3]triazol-6-yl)-N4-cyclopropyl-5-(trifluoromethyl)pyrimidine-2,4-diamine] cannot be ordered by IC50: under 200 nM for the first, under 200 nM for the second.

CN(c1nc(Nc2ccc3c(c2)CCC(=O)N3)ncc1C(F)(F)F)C1CC1 [Example 202, 6-((4-(cyclopropyl(methyl)amino)-5-(trifluoromethyl)pyrimidin-2-yl)amino)-3,4-dihydroquinolin-2(1H)-one] and O=C1CCc2cc(Nc3ncc(C(F)(F)F)c(N4CC(F)(F)C4)n3)ccc2N1 [Example 215, 6-((4-(3,3-difluoroazetidin-1-yl)-5-(trifluoromethyl)pyrimidin-2-yl)amino)-3,4-dihydroquinolin-2(1H)-one] cannot be ordered by IC50: under 200 nM for the first, under 200 nM for the second.

FC(F)(F)c1cnc(Nc2ccc3c(c2)OCO3)nc1NC1CC1 [Example 213, N2-(benzo[d][1,3]dioxol-5-yl)-N4-cyclopropyl-5-(trifluoromethyl)pyrimidine-2,4-diamine] and FC(F)(F)c1cnc(Nc2ccc3c(c2)OCCCO3)nc1NC1CC1 [Example 190, N4-cyclopropyl-N2-(3,4-dihydro-2H-benzo[b][1,4]dioxepin-7-yl)-5-(trifluoromethyl)pyrimidine-2,4-diamine] cannot be ordered by IC50: under 200 nM for the first, under 200 nM for the second.

First: CNC(=O)c1ccccc1Nc1nc(Nc2cnc3[nH]ccc3c2)ncc1C(F)(F)F [Example 201, 2-((2-((1H-pyrrolo[2,3-b]pyridin-5-yl)amino)-5-(trifluoromethyl)pyrimidin-4-yl)amino)-N-methylbenzamide]
Second: Nc1nc(Nc2cnc3[nH]ccc3c2)ncc1C(F)(F)F [Example 217, N2-(1H-pyrrolo[2,3-b]pyridin-5-yl)-5-(trifluoromethyl) pyrimidine-2,4-diamine]
The IC50 of the first is lower: under 200 nM for the first, over 2000 nM for the second.

Going from FC1(F)Oc2ccc(Nc3ncc(C(F)(F)F)c(NC4CC4)n3)cc2O1 [Example 258, N4-cyclopropyl-N2-(2,2-difluorobenzo[d][1,3]dioxol-5-yl)-5-(trifluoromethyl)pyrimidine-2,4-diamine] to Nc1ccc(Nc2ncc(C(F)(F)F)c(NC3CC3)n2)cc1 [Example 304a, N2-(4-aminophenyl)-N4-cyclopropyl-5-(trifluoromethyl)pyrimidine-2,4-diamine], the IC50 falls from over 2000 nM to under 200 nM. The second is the more potent here.

CC1(Nc2nc(Nc3ccc4c(c3)CCC(=O)N4)ncc2C(F)(F)F)COC1 [Example 220a, 6-((4-((3-methyloxetan-3-yl)amino)-5-(trifluoromethyl)pyrimidin-2-yl)amino)-3,4-dihydroquinolin-2(1H)-one] and CCONc1nc(Nc2ccc3c(c2)CCC(=O)N3)ncc1C(F)(F)F [Example 219, 6-((4-(ethoxyamino)-5-(trifluoromethyl)pyrimidin-2-yl)amino)-3,4-dihydroquinolin-2(1H)-one] cannot be ordered by IC50: over 2000 nM for the first, over 2000 nM for the second.

O=c1[nH]c2ccc(Nc3ncc(Br)c(NC4CC4)n3)cc2[nH]1 [Example 236, 5-((5-bromo-4-(cyclopropylamino)pyrimidin-2-yl)amino)-1,3-dihydro-2H-benzo[d]imidazol-2-one] and O=c1[nH]c2ncc(Nc3nc(Nc4ccc5c(c4)OCCO5)ncc3Br)cc2o1 [Example 192, 6-((5-bromo-2-((2,3-dihydrobenzo[b][1,4]dioxin-6-yl)amino)pyrimidin-4-yl)amino)oxazolo[4,5-b]pyridin-2(3H)-one] cannot be ordered by IC50: under 200 nM for the first, under 200 nM for the second.

First: FC(F)(F)c1cnc(N2CCCC2c2cccnc2)nc1NC1CC1 (stereo not drawn) [Example 228, N-cyclopropyl-2-(2-(pyridin-3-yl)pyrrolidin-1-yl)-5-(trifluoromethyl)pyrimidin-4-amine]
Second: FC(F)(F)c1cnc(Nc2ccnnc2)nc1NC1CC1 [Example 221a, N4-cyclopropyl-N2-(pyridazin-4-yl)-5-(trifluoromethyl)pyrimidine-2,4-diamine]
The IC50 of the first is higher: over 2000 nM for the first, under 200 nM for the second. The second is the more potent here.

FC(F)(F)c1cnc(Nc2cnc3[nH]ccc3c2)nc1NC1COC1 [Example 194, N4-(oxetan-3-yl)-N2-(1H-pyrrolo[2,3-b]pyridin-5-yl)-5-(trifluoromethyl)pyrimidine-2,4-diamine] and FC(F)(F)c1cnc(Nc2cnc3ccccc3c2)nc1NC1CC1 [Example 275, N4-cyclopropyl-N2-(quinolin-3-yl)-5-(trifluoromethyl) pyrimidine-2,4-diamine] cannot be ordered by IC50: under 200 nM for the first, under 200 nM for the second.

First: C[C@@H]1COCCN1c1nc(Nc2ccc3c(c2)CCC(=O)N3)ncc1C(F)(F)F [Example 247, (R)-6-((4-(3-methylmorpholino)-5-(trifluoromethyl)pyrimidin-2-yl)amino)-3,4-dihydroquinolin-2(1H)-one]
Second: COC(=O)[C@@H]1CCCN1c1nc(Nc2ccc3c(c2)CCC(=O)N3)ncc1C(F)(F)F [Example 227, Methyl (2-((2-oxo-1,2,3,4-tetrahydroquinolin-6-yl)amino)-5-(trifluoromethyl)pyrimidin-4-yl)-L-prolinate]
The IC50 of the first is lower: under 200 nM for the first, 200 to 2000 nM for the second. The first is the more potent here.

Compared with CNC(=O)c1ccccc1Oc1ccnc(Nc2cc(OC)c(OC)c(OC)c2)n1 [Example 239, N-methyl-2-((2-((3,4,5-trimethoxyphenyl)amino)pyrimidin-4-yl)oxy)benzamide], CCC(=O)c1ccccc1Oc1nc(Nc2cc(OC)c(OC)c(OC)c2)ncc1Br [Example 260, 1-(2-((5-bromo-2-((3,4,5-trimethoxyphenyl)amino)pyrimidin-4-yl)oxy)phenyl)propan-1-one] is lower in IC50: over 2000 nM for the first, under 200 nM for the second. The second is the more potent here.

O=C1CCc2cc(Nc3ncc(C(F)(F)F)c(N(CCO)CCO)n3)ccc2N1 [Example 212a, 6-((4-(bis(2-hydroxyethyl)amino)-5-(trifluoromethyl)pyrimidin-2-yl)amino)-3,4-dihydroquinolin-2(1H)-one] and COC(=O)CNc1nc(Nc2ccc3c(c2)CCC(=O)N3)ncc1C(F)(F)F [Example 218, Methyl (2-((2-oxo-1,2,3,4-tetrahydroquinolin-6-yl)amino)-5-(trifluoromethyl)pyrimidin-4-yl)glycinate] cannot be ordered by IC50: over 2000 nM for the first, over 2000 nM for the second.

O=C(C1CC1)N(C(=O)C1CC1)c1ccc(Nc2ncc(C(F)(F)F)c(NC3CC3)n2)cc1 [Example 311, N-(cyclopropanecarbonyl)-N-(4-((4-(cyclopropylamino)-5-(trifluoromethyl)pyrimidin-2-yl)amino)phenyl)cyclopropanecarboxamide] and O=C(Nc1ccc(Nc2ncc(C(F)(F)F)c(NC3CC3)n2)cc1)C1CC1 [Example 312, N-(4-((4-(cyclopropylamino)-5-(trifluoromethyl)pyrimidin-2-yl)amino)phenyl)cyclopropanecarboxamide] cannot be ordered by IC50: under 200 nM for the first, under 200 nM for the second.

First: CNS(=O)(=O)c1ccccc1Nc1nc(Nc2cc(OC)c(OC)c(OC)c2)ncc1Br [Example 237, 2-((5-bromo-2-((3,4,5-trimethoxyphenyl)amino)pyrimidin-4-yl)amino)-N-methylbenzenesulfonamide]
Second: COc1cc(Nc2ncc(Br)c(Oc3ccccc3C(F)(F)F)n2)cc(OC)c1OC [Example 299, 5-bromo-4-(2-(trifluoromethyl)phenoxy)-N-(3,4,5-trimethoxyphenyl)pyrimidin-2-amine]
The IC50 of the first is higher: 200 to 2000 nM for the first, under 200 nM for the second.

Work on CC(C)(C)OC(=O)NCCCNc1nc(Nc2ccc3c(c2)CCC(=O)N3)ncc1C(F)(F)F [Example 310, Tert-butyl (3-((2-((2-oxo-1,2,3,4-tetrahydroquinolin-6-yl)amino)-5-(trifluoromethyl)pyrimidin-4-yl)amino)propyl)carbamate] yielded an IC50 of under 200 nM.
